One test relates to NCI-H929 cell lines. Kind of test: In vitro cytotoxicity, CellTiter-Glo (CTG) assay (Example B, Method B). Format: cell-based. The settings on record: Homo sapiens, NCI-H929, 48 h, NCI-H929 cells, 48 h incubation, read-out: C50. In a few lines: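 NCI-H929 cells exposed to an 11-point compound series from 10 mM DMSO stocks (top final 30 μM) for 48 h at 37° C., 5% CO2. Viability measured as ATP by CellTiter-Glo luminescence; C50 is the concentration giving 50% cellular viability.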

In test [1] the target is Cy5-labelled Mcl1 (amino acids 171-321) C286S protein (UniProtKB Q07820) (Homo sapiens (Human), UniProt Q07820, C286S). Kind of test: Inhibition of Mcl-1 by the fluorescence quenching assay (Example A, Method B). Type of test: binding. An outline of the steps:
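Cy5-labelled Mcl1 171-321 C286S (1 nM) quenched by TQ5WS-labelled PUMA peptide (10, 20 or 400 nM); displacement raises fluorescence (Ex 620/Em 680 nm). Buffer 10 mM HEPES, 150 mM NaCl, 0.05% Tween 20, pH 7.4, 5% DMSO; 2 h at room temperature, 11-point curves, IC50 converted to Ki (cKi/eKi).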

One may read the Ki as the dissociation constant of the complex between target and ligand, obtained from inhibition or displacement.

Chain of Cy5-labelled Mcl1 (amino acids 171-321) C286S protein (Q07820 171-321 C286S): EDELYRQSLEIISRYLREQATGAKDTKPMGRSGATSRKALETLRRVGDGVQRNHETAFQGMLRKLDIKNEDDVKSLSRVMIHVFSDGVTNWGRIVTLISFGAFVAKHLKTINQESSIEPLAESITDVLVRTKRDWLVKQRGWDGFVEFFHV

With `C[C@@H](COc1ccnc2c1[C@H](C)CCC2)C[C@H]1Cc2cc3c(cc2[C@]12CC[C@@](Nc1cccc(Cl)c1)(C(=O)O)CC2)CCC3` [Example 852, (1r,2′S,4S)-4-(3-chloroanilino)-2′-[(2R)-2-methyl-3-{[(5R)-5-methyl-5,6,7,8-tetrahydroquinolin-4-yl]oxy}propyl]-3′,5′,6′,7′-tetrahydro-2′H-spiro[cyclohexane-1,1′-[s]indacene]-4-carboxylic acid], in the test on NCI-H929 cell lines, the IC50 came out at 235 nM. Moreover, the Ki in test [1] is 0.0896 nM.

For the molecule `Cc1ccc2c(c1)C[C@H](C[C@@H](C)COc1ccnc3c1[C@H](C)CCC3)[C@]21CC[C@](Nc2cccc(Cl)c2)(C(=O)O)CC1` [Example 853, (1r,2′S,4S)-4-(3-chloroanilino)-5′-methyl-2′-[(2R)-2-methyl-3-{[(5R)-5-methyl-5,6,7,8-tetrahydroquinolin-4-yl]oxy}propyl]-2′,3′-dihydrospiro[cyclohexane-1,1′-indene]-4-carboxylic acid], the IC50 in the test on NCI-H929 cell lines came to 137 nM. In test [1], the Ki came to 0.0917 nM.

Take `C[C@@H](COc1ccnc2c1[C@H](C)CCC2)C[C@H]1Cc2ccc(CO)cc2[C@]12CC[C@@](Nc1cccc(Cl)c1)(C(=O)O)CC2` [Example 870, (1r,2′S,4S)-4-(3-chloroanilino)-6′-(hydroxymethyl)-2′-[(2R)-2-methyl-3-{[(5R)-5-methyl-5,6,7,8-tetrahydroquinolin-4-yl]oxy}propyl]-2′,3′-dihydrospiro[cyclohexane-1,1′-indene]-4-carboxylic acid]: the IC50 in the test with NCI-H929 cell lines came to 126 nM. Further, the Ki in test [1] stood at 0.0509 nM.

For the molecule `C[C@@H](COc1ccnc2c1[C@H](C)CCC2)C[C@H]1Cc2ccc(COC3CCCO3)cc2[C@]12CC[C@@](Nc1cccc(Cl)c1)(C(=O)O)CC2` (stereo partly drawn) [Example 872, (1r,2′S,4S)-4-(3-chloroanilino)-2′-[(2R)-2-methyl-3-{[(5R)-5-methyl-5,6,7,8-tetrahydroquinolin-4-yl]oxy}propyl]-6′-{[(oxolan-2-yl)oxy]methyl}-2′,3′-dihydrospiro[cyclohexane-1,1′-indene]-4-carboxylic acid], the IC50 in the test on NCI-H929 cell lines was determined as 52.9 nM. Also, the Ki in test [1] is 0.0505 nM.

For the molecule `COC[C@H]1C[C@@H]1c1ccc2c(c1)[C@]1(CC[C@@](Nc3cccc(Cl)c3)(C(=O)O)CC1)[C@@H](C[C@@H](C)COc1ccnc3c1[C@H](C)CCC3)C2` [Example 874, (1r,2′S,4S)-4-(3-chloroanilino)-6′-[(1S,2S)-2-(methoxymethyl)cyclopropyl]-2′-[(2R)-2-methyl-3-{[(5R)-5-methyl-5,6,7,8-tetrahydroquinolin-4-yl]oxy}propyl]-2′,3′-dihydrospiro[cyclohexane-1,1′-indene]-4-carboxylic acid], in the test with NCI-H929 cell lines, the IC50 came to 113 nM. The Ki in test [1] worked out at 0.161 nM.

Turning to `COC[C@@H]1C[C@H]1c1ccc2c(c1)[C@]1(CC[C@@](Nc3cccc(Cl)c3)(C(=O)O)CC1)[C@@H](C[C@@H](C)COc1ccnc3c1[C@H](C)CCC3)C2` [Example 875, (1r,2′S,4S)-4-(3-chloroanilino)-6′-[(1R,2R)-2-(methoxymethyl)cyclopropyl]-2′-[(2R)-2-methyl-3-{[(5R)-5-methyl-5,6,7,8-tetrahydroquinolin-4-yl]oxy}propyl]-2′,3′-dihydrospiro[cyclohexane-1,1′-indene]-4-carboxylic acid], in the test with NCI-H929 cell lines, the IC50 was 59.7 nM. Further, the Ki in test [1] was 0.0843 nM.

In the case of `COc1ccccc1-c1ccc2c(c1)[C@]1(CC[C@@](Nc3cccc(Cl)c3)(C(=O)O)CC1)[C@@H](C[C@@H](C)COc1ccnc3c1[C@H](C)CCC3)C2` [Example 876, (1r,2′S,4S)-4-(3-chloroanilino)-6′-(2-methoxyphenyl)-2′-[(2R)-2-methyl-3-{[(5R)-5-methyl-5,6,7,8-tetrahydroquinolin-4-yl]oxy}propyl]-2′,3′-dihydrospiro[cyclohexane-1,1′-indene]-4-carboxylic acid], the IC50 in the test on NCI-H929 cell lines was 307 nM. In test [1], the Ki was 0.399 nM.

On to `COc1cccc(-c2ccc3c(c2)[C@]2(CC[C@@](Nc4cccc(Cl)c4)(C(=O)O)CC2)[C@@H](C[C@@H](C)COc2ccnc4c2[C@H](C)CCC4)C3)c1` [Example 877, (1r,2′S,4S)-4-(3-chloroanilino)-6′-(3-methoxyphenyl)-2′-[(2R)-2-methyl-3-{[(5R)-5-methyl-5,6,7,8-tetrahydroquinolin-4-yl]oxy}propyl]-2′,3′-dihydrospiro[cyclohexane-1,1′-indene]-4-carboxylic acid], for which, in the test with NCI-H929 cell lines, the IC50 stood at 505 nM. In addition, the Ki in test [1] came to 0.642 nM.

In the case of `C[C@@H](COc1ccnc2c1[C@H](C)CCC2)C[C@H]1Cc2ccc(-c3ccsc3)cc2[C@]12CC[C@@](Nc1cccc(Cl)c1)(C(=O)O)CC2` [Example 878, (1r,2′S,4S)-4-(3-chloroanilino)-2′-[(2R)-2-methyl-3-{[(5R)-5-methyl-5,6,7,8-tetrahydroquinolin-4-yl]oxy}propyl]-6′-(thiophen-3-yl)-2′,3′-dihydrospiro[cyclohexane-1,1′-indene]-4-carboxylic acid], the IC50 in the test on NCI-H929 cell lines was 1110 nM. Moreover, in test [1], the Ki came out at 0.386 nM.

Regarding `C[C@@H](COc1ccnc2c1[C@H](C)CCC2)C[C@@H]1Cc2ccc(-c3ccsc3)cc2[C@]12CC[C@@](Nc1cccc(Cl)c1)(C(=O)O)CC2` [Example 879, (1r,2′R,4R)-4-(3-chloroanilino)-2′-[(2R)-2-methyl-3-{[(5R)-5-methyl-5,6,7,8-tetrahydroquinolin-4-yl]oxy}propyl]-6′-(thiophen-3-yl)-2′,3′-dihydrospiro[cyclohexane-1,1′-indene]-4-carboxylic acid], in the test with NCI-H929 cell lines, the IC50 is 1360 nM. Moreover, the Ki in test [1] was found to be 4.06 nM.

In the case of `C[C@@H](COc1ccnc2c1[C@H](C)CCC2)C[C@@H]1Cc2ccc(-c3ccc[nH]3)cc2[C@]12CC[C@@](Nc1cccc(Cl)c1)(C(=O)O)CC2` [Example 880, (1r,2′R,4R)-4-(3-chloroanilino)-2′-[(2R)-2-methyl-3-{[(5R)-5-methyl-5,6,7,8-tetrahydroquinolin-4-yl]oxy}propyl]-6′-(1H-pyrrol-2-yl)-2′,3′-dihydrospiro[cyclohexane-1,1′-indene]-4-carboxylic acid], in the test with NCI-H929 cell lines, the IC50 stood at 829 nM. Further, in test [1], the Ki is 1.23 nM.

For `C[C@@H](COc1ccnc2c1[C@H](C)CCC2)C[C@H]1Cc2ccc(-c3cccn3C)cc2[C@]12CC[C@@](Nc1cccc(Cl)c1)(C(=O)O)CC2` [Example 881, (1r,2′S,4S)-4-(3-chloroanilino)-2′-[(2R)-2-methyl-3-{[(5R)-5-methyl-5,6,7,8-tetrahydroquinolin-4-yl]oxy}propyl]-6′-(1-methyl-1H-pyrrol-2-yl)-2′,3′-dihydrospiro[cyclohexane-1,1′-indene]-4-carboxylic acid], the IC50 in the test on NCI-H929 cell lines was determined as 153 nM. Also, the Ki in test [1] came out at 0.154 nM.

Consider `C[C@@H](COc1ccnc2c1[C@H](C)CCC2)C[C@@H]1Cc2ccc(-c3cc[nH]c3)cc2[C@]12CC[C@@](Nc1cccc(Cl)c1)(C(=O)O)CC2` [Example 882, (1r,2′R,4R)-4-(3-chloroanilino)-2′-[(2R)-2-methyl-3-{[(5R)-5-methyl-5,6,7,8-tetrahydroquinolin-4-yl]oxy}propyl]-6′-(1H-pyrrol-3-yl)-2′,3′-dihydrospiro[cyclohexane-1,1′-indene]-4-carboxylic acid], for which, in the test on NCI-H929 cell lines, the IC50 was 1300 nM. In addition, the Ki in test [1] came out at 1.84 nM.

(Values after patent US20240150293A1, “SPIROCYCLOHEXANE DERIVATIVES, PHARMACEUTICAL COMPOSITIONS CONTAINING THEM AND THEIR USES AS ANTI-APOPTOTIC INHIBITORS” (LES LABORATOIRES SERVIER, priority 2021, published 2024).)
